Patent publication US20240299416A1, “TREATMENT OF NF-kB-MEDIATED DISEASE” (ReveraGen BioPharma, Inc., priority 2021, published 2024)

Experiments:
[1] = target: T1, mineralocorticoid receptor (Homo sapiens, UniProt P08235); settings: cited from earlier work
T1 sequence (P08235 1-984): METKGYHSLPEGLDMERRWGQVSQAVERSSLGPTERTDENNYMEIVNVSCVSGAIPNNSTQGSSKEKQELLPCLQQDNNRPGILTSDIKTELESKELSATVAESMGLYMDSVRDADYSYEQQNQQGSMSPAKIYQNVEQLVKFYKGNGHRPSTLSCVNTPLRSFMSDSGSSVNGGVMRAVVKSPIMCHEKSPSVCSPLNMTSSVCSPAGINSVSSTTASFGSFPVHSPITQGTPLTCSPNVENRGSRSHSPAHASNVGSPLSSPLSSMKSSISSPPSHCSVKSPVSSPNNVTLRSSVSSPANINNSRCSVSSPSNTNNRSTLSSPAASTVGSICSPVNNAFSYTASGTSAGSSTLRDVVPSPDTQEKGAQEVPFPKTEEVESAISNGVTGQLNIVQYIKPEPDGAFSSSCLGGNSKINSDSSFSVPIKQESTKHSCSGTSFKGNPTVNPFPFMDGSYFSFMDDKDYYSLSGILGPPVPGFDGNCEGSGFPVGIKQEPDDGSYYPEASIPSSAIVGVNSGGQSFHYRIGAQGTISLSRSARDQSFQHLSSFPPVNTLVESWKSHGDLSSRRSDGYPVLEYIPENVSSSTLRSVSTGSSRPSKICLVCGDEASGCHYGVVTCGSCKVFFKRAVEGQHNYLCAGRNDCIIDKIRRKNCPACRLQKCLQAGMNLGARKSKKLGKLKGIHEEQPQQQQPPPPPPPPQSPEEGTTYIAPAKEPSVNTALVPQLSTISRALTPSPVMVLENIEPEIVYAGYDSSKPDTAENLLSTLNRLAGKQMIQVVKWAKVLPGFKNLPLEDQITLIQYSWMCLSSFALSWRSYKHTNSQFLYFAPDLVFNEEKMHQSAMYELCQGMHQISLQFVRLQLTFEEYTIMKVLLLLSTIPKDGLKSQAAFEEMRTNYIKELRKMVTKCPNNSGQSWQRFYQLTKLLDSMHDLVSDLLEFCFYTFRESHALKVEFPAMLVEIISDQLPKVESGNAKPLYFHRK

[2] = target: T2, glucocorticoid receptor (Homo sapiens, UniProt P04150); settings: cited from earlier work
T2 sequence (P04150 1-777): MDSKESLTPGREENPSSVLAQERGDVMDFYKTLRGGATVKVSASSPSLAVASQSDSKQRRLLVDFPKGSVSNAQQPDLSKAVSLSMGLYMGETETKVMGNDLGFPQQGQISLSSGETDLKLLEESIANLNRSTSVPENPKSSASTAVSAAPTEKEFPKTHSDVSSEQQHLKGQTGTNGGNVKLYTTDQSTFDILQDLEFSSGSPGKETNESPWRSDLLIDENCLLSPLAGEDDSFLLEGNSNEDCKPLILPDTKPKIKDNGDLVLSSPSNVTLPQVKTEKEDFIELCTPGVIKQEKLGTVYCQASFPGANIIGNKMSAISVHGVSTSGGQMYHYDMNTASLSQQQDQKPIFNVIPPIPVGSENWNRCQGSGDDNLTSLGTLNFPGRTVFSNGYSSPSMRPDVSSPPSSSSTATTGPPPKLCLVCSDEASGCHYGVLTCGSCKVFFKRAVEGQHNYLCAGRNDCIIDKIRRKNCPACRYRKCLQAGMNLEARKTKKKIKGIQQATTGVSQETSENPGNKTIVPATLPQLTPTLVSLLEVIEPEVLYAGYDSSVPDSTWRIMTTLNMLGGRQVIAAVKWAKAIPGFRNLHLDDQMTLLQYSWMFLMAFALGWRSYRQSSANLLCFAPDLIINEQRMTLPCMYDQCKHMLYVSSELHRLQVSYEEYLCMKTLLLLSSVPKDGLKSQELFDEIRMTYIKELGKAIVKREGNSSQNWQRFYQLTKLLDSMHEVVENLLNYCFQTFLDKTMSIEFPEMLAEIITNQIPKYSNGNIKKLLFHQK

[3] = Growth (height percentile) and BMI vs external comparators; assay type: in vivo, human
Method: As with the CINRG DNHS comparators, group-matching criteria were prespecified in the iSAP, and 2 independent statisticians carried out the participant matching. […] There was no corresponding 12-month assessment in vamorolone-treated participants. (Assessments of vamorolone-treated trial participants were 0, 3, 6, and 18 months).
Standing height and weight were assessed at each study visit. Height z-score, body mass index (BMI; kg/m^2), and BMI z-score were calculated centrally. AE reporting was done per protocol in the vamorolone trials.
The current study is the first to evaluate the longer-term tolerability, efficacy, and safety of vamorolone in DMD. […] Given the variable timing of dose escalations, it was prespecified that initial analyses of drug-related efficacy and safety would be limited to those participants who had 18 months of treatment with 2.0 mg/kg/day vamorolone or more (dose group C+dose group D; n=23). Outcomes for these participants were compared to a group-matched cohort from the CINRG DNHS over 18 months (corticosteroid-naïve, n=19; corticosteroid-treated, n=68). Participants were matched for age and treatment period (±1 month), matching criteria were prespecified in the statistical analysis plan. Two independent statisticians carried out the matching.
Participants in the corticosteroid-treated CINRG DNHS group were treated for at least 18 months, but the total duration, dose, and regimens varied.

[4] = test system: boys with DMD; assay: VBP15-004 (VISION-DMD) Phase 2b efficacy at 24 weeks; assay type: in vivo, human
Excerpt: The second period of 24 weeks, where all participants receive vamorolone treatment on either of the two dose levels, will continue to capture additional longer-term safety and tolerability data.

[5] = vamorolone 18 months vs prednisone trial 12 months
[6] = vamorolone vs corticosteroid-naïve DNHS, 18 months
[7] = vamorolone vs corticosteroid-treated DNHS, 18 months

Mean BMI z-score, 18-month value (SD) ([3]; 18 months of treatment): 1.46 (0.62)
Mean BMI z-score, change from baseline (SD) ([3]; 18 months of treatment): 0.411 (0.615)
Mean height percentile for age, 18-month value (SD) ([3]; 18 months of treatment): 35.24 (29.82)
Mean BMI z-score, change from baseline (SD) ([3]; 18 months of treatment, listed as vamorolone): 0.41
LS Mean change in height percentiles for age ([3]; DMD children, 18 months treatment): +6.9
Mean BMI z-score, baseline value (SD) ([3]; baseline of 18-month period): 1.03 (0.56)
Mean height percentile for age, baseline value (SD) ([3]; baseline of 18-month period): 29.19 (24.66)
Mean BMI z-score, baseline value (SD) ([3]; baseline of 18-month period, listed as vamorolone): 1.03
BMI change from baseline to 18 months ([3]; original dose group B (0.75 mg/kg/day, escalated)): 0.5 kg/m^2
BMI change from baseline to 18 months ([3]; original dose group C (2.0 mg/kg/day)): 1.11 kg/m^2
BMI change from baseline to 18 months ([3]; original dose group D (6.0 mg/kg/day)): 2.55 kg/m^2
Mean BMI z-score, LS mean difference (SE) [3, 5]: 0.066 (0.193)
Mean height percentile for age, LS mean difference (SE) [3, 5]: 10.37 (3.86)
Mean height percentile for age, LS mean difference (SE) ([3]; vamorolone 18 months vs prednisone trial 12 months, listed as vamorolone): 10.37
Mean BMI z-score, LS mean difference (SE) [3, 6]: 0.899 (0.204)
Mean height percentile for age, LS mean difference (SE) [3, 6]: 6.72 (3.48)
Mean BMI z-score, LS mean difference (SE) [3, 7]: 0.282 (0.146)
Mean height percentile for age, LS mean difference (SE) [3, 7]: 15.86 (3.70)
Mean height percentile for age, LS mean difference (SE) ([3]; vamorolone vs corticosteroid-treated DNHS, 18 months, listed as vamorolone): 15.86
SMILES: C[C@@H]1C[C@H]2[C@@H]3CCC4=CC(=O)C=C[C@]4(C)C3=CC[C@]2(C)[C@@]1(O)C(=O)CO [Vamorolone, 17α,21-dihydroxy-16α-methylpregna-1,4,9(11)-triene-3,20-dione]
activity at the mineralocorticoid receptor [1]: potent antagonist
binding to the glucocorticoid receptor [2]: potently binds
6MWT versus placebo ([4]; 2 mg/kg/day, 24 weeks, p=0.009): superiority
TTSTAND velocity versus placebo ([4]; 2 mg/kg/day, 24 weeks, p=0.02): superiority
TTSTAND ([4]; 6 mg/kg/day group, baseline): 6.0 s
efficacy endpoints versus prednisone ([4]; 6 mg/kg/day vs prednisone 0.75 mg/kg/day, 24 weeks): no statistically significant differences
TTRW versus placebo ([4]; 6 mg/kg/day, 24 weeks, p=0.002): superiority
6MWT versus placebo ([4]; 6 mg/kg/day, 24 weeks, p=0.003): superiority
